Test results taken from patent US11524012B1, “Quinolone analogs and their salts, compositions, and method for their use” (Senhwa Biosciences, Inc., priority 2018, dated 2022).
Like-named read-outs stand apart in the source and are kept apart here.

Key:
[1] = Dose escalation study (maximum tolerated dose); type: in vivo, human; settings: IV infusion once every three weeks
Protocol: Pharmacokinetic studies and dose escalation studies were conducted in adult patients with advanced hematologic cancers at 25, mg/m^2 (ready-to-use formulation), 50 mg/m^2 (ready-to-use formulation), 100 mg/m^2 (ready-to-use formulation), 170 mg/m^2 (lyophilized formulation), and 250 mg/m^2 (lyophilized formulation) dose levels of Compound I. Each patient received one dose over 1 hour by IV infusion, once every three weeks±2 days (Cohort 1).
Dose escalations were planned in 7 cohorts (25-450 mg/m2), in an accelerated design, with change to 3+3 design based on predefined toxicity criteria. 16 patients (6 myeloma, 2 Hodgkin lymphoma, 6 Non Hodgkin lymphoma (NHL), 1 TPLL, 1 CLL) were treated in 5 cohorts (25-250 mg/m2), for a median of 2 (1-18) cycles.
The maximum tolerated dose was determined to be 170 mg/m^2.

[2] = system: various cancer cell lines; assay: Cell viability by Alamar Blue assay; type: cell-based
Protocol: The effect of Compound I on cell viability was assessed by Alamar Blue assay of metabolic activity in various cancer cell lines.

[3] = Pharmacokinetic parameters in preclinical species; type: in vivo, mice; settings: Mouse (ICR), IV, 5 mg/kg, mean of 3 animals
[4] = Pharmacokinetic parameters in preclinical species; type: in vivo, monkeys; settings: Monkey, IV, 5.2 mg/kg, mean of 3 animals
[5] = Stability of stock solutions and of spiked human plasma (LC/MS/MS method validation); type: physicochemical
Protocol: A reference standard stock solution of Compound I was prepared by weighing the reference standard and dissolving it in a solution of 50:50:0.1 (v/v) mixture of ACN:deionized water:formic acid, followed by vortex-mixing and sonication. This stock solution was used for preparation of the calibration standards. Another stock solution of Compound I was prepared following the same procedure and was used for preparation of the QC samples. Both stock solutions were prepared previously and stored at refrigeration (2° C. to 8° C.) prior to use on the day of assay. […] Both solutions were used within the established stability timeframe.
The internal standard stock solution was previously prepared by weighing Compound A (2-(4-Methyl-piperazin-1-yl)-5-oxo-5H-7-thia-1,11b-diaza-benzo[c]fluorene-6-carboxylic acid (5-methyl-pyrazin-2-ylmethyl)-amide) and dissolving it in a solution of 50:50:0.1 (v/v) mixture of ACN:deionized water:formic acid. This stock solution was stored at refrigeration (2° C. to 8° C.) prior to use. […] This solution was used within the established stability timeframe. On the day of assay, this solution was further diluted with a solution of 50:50:0.1 (v/v) mixture of ACN:deionized water:formic acid into a solution for spiking.
This assay method was based on a nominal quantitation range of 5.00 ng/mL to 5000 ng/mL. Validation results met their acceptance criteria for the assessments of calibration range, assay accuracy and precision, hemolysis matrix effects, lipidemic matrix effects, selectivity and specificity, dilution integrity, and assay ruggedness with respect to changing analysts and instrument, and over the run time anticipated for a prospective test sample run. Chromatographic carryover was not observed. A 6-minute assay run time was validated. […] (−63° C. to −77° C.) and following 4 cycles of freeze/thaw.

[6] = system: Pol I transcription (47S pre-rRNA levels) in peripheral blood mononuclear cells (PBMC); assay: Inhibition of Pol I transcription by RNA-FISH of 47S pre-rRNA; type: in vivo, human; design: concentration or dose not given beside the values; settings: 1 hr post-infusion
Protocol: Inhibition of Pol I transcription rates was measured via RNA-FISH quantitating the abundance of 47S pre-rRNA levels in peripheral blood mononuclear cells (PBMC) and tumor tissue, at various time points following the cycle 1. Skin biopsies from normal skin and rash areas were studied after the observation of photosensitivity in patients in cohort 1.

Cc1cnc(CNC(=O)c2c(=O)c3ccc(N4CCCN(C)CC4)nc3n3c2sc2ccccc23)cn1 [Compound I, 2-(4-Methyl-[1,4]diazepan-1-yl)-5-oxo-5H-7-thia-1,11b-diaza-benzo[c]fluorene-6-carboxylic acid (5-methyl-pyrazin-2-ylmethyl)-amide]
maximum tolerated dose [1]: 170 mg/m^2 | EC50 ([2]; A7, Melanoma): 23 nM | EC50 ([2]; BJ-hTERT, Normal): 5170 nM | EC50 ([2]; CCD-1058Sk, Normal): 4710 nM | EC50 ([2]; CCD-1068Sk, Normal): 5070 nM | EC50 ([2]; CCD-1094Sk, Normal): 4810 nM | EC50 ([2]; CD-1096Sk, Normal): 5260 nM | EC50 ([2]; Homo sapiens, A549, A549, Lung): 4900 nM | EC50 ([2]; Homo sapiens, A-375, A375, Melanoma): 58 nM | EC50 ([2]; Homo sapiens, BT-20, BT-20, Breast): 335 nM | EC50 ([2]; Homo sapiens, BT-474, BT-474, Breast): 86 nM | EC50 ([2]; Homo sapiens, BXPC-3, BxPC-3, Pancreatic): 664 nM | EC50 ([2]; Homo sapiens, COLO 205, COLO-205, Colon): 96 nM | EC50 ([2]; Homo sapiens, Daudi, Lymphoma): 142 nM | EC50 ([2]; Homo sapiens, EOL1, EOL-1, Leukemia): 3 nM | EC50 ([2]; Homo sapiens, HCT-116, HCT-116, Colon): 164 nM | EC50 ([2]; Homo sapiens, HL60/MX2, HL60/MX2, Leukemia): 147 nM | EC50 ([2]; Homo sapiens, HL-60, HL60, Leukemia): 83 nM | EC50 ([2]; Homo sapiens, HT-29, HT-29, Colon): 741 nM | EC50 ([2]; Homo sapiens, Hs-578T, Hs 578.T, Breast): 1650 nM | EC50 ([2]; Homo sapiens, Jurkat, Leukemia): 64 nM | EC50 ([2]; Homo sapiens, K562, K562, Leukemia): 104 nM | EC50 ([2]; Homo sapiens, LNCaP, Prostate): 5500 nM | EC50 ([2]; Homo sapiens, MCF7, MCF 7, Breast): 347 nM | EC50 ([2]; Homo sapiens, MDA-MB-175-VII, Breast): 2780 nM | EC50 ([2]; Homo sapiens, MDA-MB-231, MDA-MB-231, Breast): 83 nM | EC50 ([2]; Homo sapiens, MDA-MB-361, MDA-MB-361, Breast): 2100 nM | EC50 ([2]; Homo sapiens, MDA-MB-453, MDA-MB-453, Breast): 140 nM | EC50 ([2]; Homo sapiens, MDA-MB-468, MDA-MB-468, Breast): 171 nM | EC50 ([2]; Homo sapiens, MIA PaCa-2, MIA PaCa-2, Pancreatic): 74 nM | EC50 ([2]; Homo sapiens, MOLT-3, MOLT-3, Leukemia): 6 nM | EC50 ([2]; Homo sapiens, MV4-11, MV 4;11, Leukemia): 12 nM | EC50 ([2]; Homo sapiens, NCI-H460, NCI-H460, Lung): 38 nM | EC50 ([2]; Homo sapiens, NCI-H520, NCI-H520, Lung): 70 nM | EC50 ([2]; Homo sapiens, NCI-H1299, NCI-H1299, Lung): 55 nM | EC50 ([2]; Homo sapiens, NCI-H2170, NCI-H2170, Lung): 194 nM | EC50 ([2]; Homo sapiens, PANC-1, PANC-1, Pancreatic): 5000 nM | EC50 ([2]; Homo sapiens, RPMI-8226, RPMI-8226, Myeloma): 68 nM | EC50 ([2]; Homo sapiens, Raji, Lymphoma): 133 nM | EC50 ([2]; Homo sapiens, Ramos, Lymphoma): 66 nM | EC50 ([2]; Homo sapiens, SAOS-2, Saos-2, Osteosarcoma): 5000 nM | EC50 ([2]; Homo sapiens, SK-BR-3, SKBr3, Breast): 134 nM | EC50 ([2]; Homo sapiens, SK-MEL-24, SK-MEL-24, Melanoma): 147 nM | EC50 ([2]; Homo sapiens, SK-MES-1, SK-MES-1, Lung): 1260 nM | EC50 ([2]; Homo sapiens, SK-OV-3, SK-OV-3, Ovarian): 78 nM | EC50 ([2]; Homo sapiens, SUM149PT, SUM 149PT, IBC (Invasive ductal breast carcinoma (inflammatory))): 751 nM | EC50 ([2]; Homo sapiens, T47D, Breast): 2340 nM | EC50 ([2]; Homo sapiens, THP-1, THP-1, Leukemia): 47 nM | EC50 ([2]; Homo sapiens, U2OS, Osteosarcoma): 281 nM | EC50 ([2]; Homo sapiens, UACC-812, UACC-812, Breast): 1830 nM | EC50 ([2]; Homo sapiens, ZR-75-1, ZR-75-1, Breast): 123 nM | EC50 ([2]; Hs 605.T, Breast): 116 nM | EC50 ([2]; NK92mi, Lymphoma): 165 nM | EC50 ([2]; PC-3, Prostate): 1100 nM | EC50 ([2]; SEM, Leukemia): 18 nM | EC50 ([2]; SR, Leukemia): 5 nM | EC50 ([2]; SUM190PT, SUM 190PT, IBC (Invasive ductal breast carcinoma (inflammatory))): 583 nM | antiproliferative activity (in words) ([2]; multiple cancer cell lines): broad spectrum antiproliferative activity | activity in normal cells (in words) ([2]; normal cells): significantly less active | CIs [3]: 0.483 mL/min/kg | Cmax ([3]; plasma): 34300 ng/mL | half-life ([3]; plasma): 6 h | AUC(0-t) ([3]; plasma, read-out: AUC24hr): 186000 ng·h/mL | Vd ([3]; plasma, read-out: Vss): 0.145 L/kg | CIs [4]: 1,849 mL/hr/kg | Cmax ([4]; plasma): 668 ng/mL | half-life ([4]; plasma): 13 h | AUC(0-t) ([4]; plasma, read-out: AUC24hr): 2370 ng·h/mL | Vd ([4]; plasma, read-out: Vss): 23 L/kg | stable following cycles of freeze/thaw in sodium heparinised human plasma [5]: 4 cycles | stable in sodium heparinised human plasma ([5]; nominal −70° C. (−63° C. to −77° C.)): 31 days | stock solution stable (50:50:0.1 ACN:deionized water:formic acid) ([5]; refrigeration (2° C. to 8° C.)): 385 days | average level of inhibition of Pol I transcription ([6]; cohort 1): 49.0% | average level of inhibition of Pol I transcription ([6]; cohort 2): 51.1% | average level of inhibition of Pol I transcription ([6]; cohort 3): 19.6% | average level of inhibition of Pol I transcription ([6]; cohort 4): 47.3% | average level of inhibition of Pol I transcription ([6]; cohort 5): 38.6%
